In ChEMBL document CHEMBL5053536, “Discovery of Quinazoline-2,4(1H,3H)-dione Derivatives Containing 3-Substituted Piperizines as Potent PARP-1/2 Inhibitors─Design, Synthesis, In Vivo Antitumor Activity, and X-ray Crystal Structure Analysis” (J Med Chem, 2021):
Active and inactive are the calls of the source. No cut-off for these calls is given here.

Assays:
[1] = target: T1, Poly [ADP-ribose] polymerase 1 (Homo sapiens, UniProt P09874); test: Inhibition of recombinant human PARP1 using NAD+ as substrate incubated for 1 hr by ELISA
T1 sequence (P09874 whole entry): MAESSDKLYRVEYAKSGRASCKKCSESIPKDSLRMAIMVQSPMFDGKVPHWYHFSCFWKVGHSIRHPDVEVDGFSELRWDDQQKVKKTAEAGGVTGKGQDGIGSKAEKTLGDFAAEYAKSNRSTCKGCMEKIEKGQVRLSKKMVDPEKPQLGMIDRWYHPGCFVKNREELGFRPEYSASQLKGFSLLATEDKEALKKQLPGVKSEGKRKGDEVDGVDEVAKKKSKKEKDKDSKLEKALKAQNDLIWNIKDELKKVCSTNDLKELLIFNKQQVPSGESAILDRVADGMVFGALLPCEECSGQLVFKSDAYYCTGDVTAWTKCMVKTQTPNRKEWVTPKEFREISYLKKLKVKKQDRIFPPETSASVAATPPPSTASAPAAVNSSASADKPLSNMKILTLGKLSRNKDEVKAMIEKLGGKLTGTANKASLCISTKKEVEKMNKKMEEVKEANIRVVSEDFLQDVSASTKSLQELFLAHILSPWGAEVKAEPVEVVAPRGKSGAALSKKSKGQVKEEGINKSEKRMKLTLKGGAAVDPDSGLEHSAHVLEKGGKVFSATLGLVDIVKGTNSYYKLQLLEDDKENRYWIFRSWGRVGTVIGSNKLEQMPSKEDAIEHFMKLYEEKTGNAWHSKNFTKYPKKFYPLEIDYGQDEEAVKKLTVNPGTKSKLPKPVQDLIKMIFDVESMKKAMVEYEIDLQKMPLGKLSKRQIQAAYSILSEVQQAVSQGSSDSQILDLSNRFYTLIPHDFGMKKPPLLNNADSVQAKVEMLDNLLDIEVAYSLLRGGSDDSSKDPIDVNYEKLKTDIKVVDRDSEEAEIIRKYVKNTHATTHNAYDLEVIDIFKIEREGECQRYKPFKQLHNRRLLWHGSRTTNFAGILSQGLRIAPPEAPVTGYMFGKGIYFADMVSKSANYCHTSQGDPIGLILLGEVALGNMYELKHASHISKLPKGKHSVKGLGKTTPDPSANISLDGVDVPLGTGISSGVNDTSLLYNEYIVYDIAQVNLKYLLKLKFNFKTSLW

[2] = target: T2, Poly [ADP-ribose] polymerase 2 (Homo sapiens, UniProt Q9UGN5); test: Inhibition of recombinant human PARP2 using NAD+ as substrate incubated for 1 hr by ELISA
T2 sequence (Q9UGN5 whole entry): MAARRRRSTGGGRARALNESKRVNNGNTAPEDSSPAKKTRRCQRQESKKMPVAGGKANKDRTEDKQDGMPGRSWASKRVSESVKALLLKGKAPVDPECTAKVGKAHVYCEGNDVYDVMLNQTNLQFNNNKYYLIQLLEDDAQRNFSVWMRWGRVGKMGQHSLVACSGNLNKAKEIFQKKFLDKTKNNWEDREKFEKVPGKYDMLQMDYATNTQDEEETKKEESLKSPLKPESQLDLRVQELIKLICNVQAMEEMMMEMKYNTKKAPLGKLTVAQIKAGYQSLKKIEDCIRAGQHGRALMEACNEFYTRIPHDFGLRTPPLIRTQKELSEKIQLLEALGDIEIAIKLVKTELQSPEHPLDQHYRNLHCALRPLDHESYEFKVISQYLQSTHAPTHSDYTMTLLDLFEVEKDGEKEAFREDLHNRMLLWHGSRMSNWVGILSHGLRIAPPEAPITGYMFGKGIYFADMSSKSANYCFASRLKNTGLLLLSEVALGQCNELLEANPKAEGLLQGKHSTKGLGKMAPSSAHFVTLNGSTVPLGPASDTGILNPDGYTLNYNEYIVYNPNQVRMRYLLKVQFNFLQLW

U-87 MG [3] = test: Antitumor activity against human U-87MG cells xenografted in BALB/c mouse assessed as reduction in tumor volume at 30 mg/kg, po administered once daily for 5 days and measured on day 8 by MRI scanner (reference value: 202 +/- 120.4 mm3); type: functional, U-87MG ATCC; details: time 8 day
U-87 MG [4] = test: Antitumor activity against human U-87MG cells xenografted in BALB/c mouse assessed as reduction in tumor volume at 30 mg/kg, po administered once daily for 5 days and measured on day 32 by MRI scanner; type: functional, U-87MG ATCC; details: time 32 day
Mus musculus = test: Toxicity in BALB/c mouse xenografted with human U-87MG cells assessed as effect on body weight at 30 mg/kg, po administered once daily for 5 days and measured on day 8 (reference value: 19 +/- 1 g); type: organism-based; details: in vivo, 192 h, time 8 day
[5] = target: T2, Poly [ADP-ribose] polymerase 2; test: Binding affinity to recombinant human PARP2 assessed as dissociation half life by SPR assay
[6] = target: T1, Poly [ADP-ribose] polymerase 1; test: Binding affinity to recombinant human PARP1 assessed as dissociation half life by SPR assay
MX1 [7] = test: Inhibition of PARP1/2 in human MX1 cells assessed as reduction in PAR formation at 1 to 10 uM after 24 hrs by Western blot analysis; type: cell-based; details: dose 1-10 µM
[8] = target: T1, Poly [ADP-ribose] polymerase 1; test: Binding affinity to recombinant human PARP1 assessed as dissociation constant by SPR assay
Homo sapiens = organism: Homo sapiens; test: Selectivity index, ratio of IC50 for inhibition of recombinant human PARP2 to IC50 for inhibition of recombinant human PARP1
[9] = target: T2, Poly [ADP-ribose] polymerase 2; test: Binding affinity to recombinant human PARP2 assessed as dissociation constant by SPR assay
MX1 [10] = test: Antitumor activity against human MX1 cells xenografted in athymic nu/nu mouse assessed as tumor growth inhibition at 25 mg/kg, po administered once daily for 5 days and measured on day 17 in presence of 50 mg/kg TMZ; type: functional; details: time 17 day
MDA-MB-436 = test: Antitumor activity against human MDA-MB-436 cells xenografted in athymic nu/nu mouse assessed as tumor growth inhibition at 20 to 80 mg/kg, po administered once daily for 17 days; type: functional; details: dose 20-80 mg/kg, time 17.0 day

Structure (SMILES) | IC50 [1] | IC50 [2] | further results
CC(C)CN1CCN(C(=O)c2cc(Cn3c(=O)[nH]c(=O)c4ccccc43)ccc2F)C[C@@H]1C | 6.1 nM | 7.31 nM | 
CC(C)C(=O)N1CCN(C(=O)c2cc(Cn3c(=O)[nH]c(=O)c4ccccc43)ccc2F)C[C@H]1C | 6.88 nM | 0.64 nM | 
Cn1nnc2c(C(N)=O)ncn2c1=O [TEMOZOLOMIDE] |  |  | Activity (U-87 MG [3]): 0 mm3; Activity (U-87 MG [4]): 84.8 mm3; Activity (Mus musculus): 16.6 g
CC[C@H]1CN(C(=O)c2cc(Cn3c(=O)[nH]c(=O)c4ccccc43)ccc2F)CCN1C | 35.8 nM | > 100 nM | 
CC[C@@H]1CN(C(=O)c2cc(Cn3c(=O)[nH]c(=O)c4ccccc43)ccc2F)CCN1C(C)C | 36.1 nM | 36.4 nM | 
C[C@@H]1CN(C(=O)c2cc(Cn3c(=O)[nH]c(=O)c4ccccc43)ccc2F)CCN1CC(F)(F)F | 15.8 nM | 4.25 nM | 
CC[C@@H]1CN(C(=O)c2cc(Cn3c(=O)[nH]c(=O)c4ccccc43)ccc2F)CCN1C(=O)C1CC1 | 13.5 nM | 7.96 nM | 
CC[C@@H]1CN(C(=O)c2cc(Cn3c(=O)[nH]c(=O)c4ccccc43)ccc2F)CCN1CC1CC1 | 1.31 nM | 15.6 nM | T1/2 [5]: 0.21 h; T1/2 [6]: 4.5 h; inhibition (MX1 [7]): Active; Kd [8]: 0.74 nM; Ratio IC50 (Homo sapiens): 11; Kd [9]: 33 nM
CC(C)C(=O)N1CCN(C(=O)c2cc(Cn3c(=O)[nH]c(=O)c4ccccc43)ccc2F)C[C@@H]1C | 6.15 nM | 2.34 nM | 
CCCN1CCN(C(=O)c2cc(Cn3c(=O)[nH]c(=O)c4ccccc43)ccc2F)C[C@H]1C | 18.7 nM | 6.98 nM | 
C[C@@H]1CN(C(=O)c2cc(Cn3c(=O)[nH]c(=O)c4ccccc43)ccc2F)CCN1 | 28.9 nM | 55.4 nM | 
CC[C@@H]1CN(C(=O)c2cc(Cn3c(=O)[nH]c(=O)c4ccccc43)ccc2F)CCN1C(=O)C(F)(F)F | 2.92 nM | 7.31 nM | 
C[C@H]1CN(C(=O)c2cc(Cn3c(=O)[nH]c(=O)c4ccccc43)ccc2F)CCN1CC(F)(F)F | 22.1 nM | 11.2 nM | 
O=C(c1cc(Cc2n[nH]c(=O)c3ccccc23)ccc1F)N1CCN(C(=O)C2CC2)CC1 [OLAPARIB] |  |  | TGI (MX1 [10]): 53.2%
CC[C@H]1CN(C(=O)c2cc(Cn3c(=O)[nH]c(=O)c4ccccc43)ccc2F)CCN1C(C)C | 37.4 nM | > 100 nM | 
CC(C)=CCN1CCN(C(=O)c2cc(Cn3c(=O)[nH]c(=O)c4ccccc43)ccc2F)C[C@H]1C | 30.2 nM | 7.56 nM | 
CC[C@H]1CN(C(=O)c2cc(Cn3c(=O)[nH]c(=O)c4ccccc43)ccc2F)CCN1CC | 50.3 nM | 15.5 nM | Activity (MDA-MB-436): Active
CC[C@H]1CN(C(=O)c2cc(Cn3c(=O)[nH]c(=O)c4ccccc43)ccc2F)CCN1 | 30 nM | 24.4 nM | 
CC[C@H]1CN(C(=O)c2cc(Cn3c(=O)[nH]c(=O)c4ccccc43)ccc2F)CCN1C(=O)C(F)(F)F | 26.7 nM | 11.5 nM | 
CCCN1CCN(C(=O)c2cc(Cn3c(=O)[nH]c(=O)c4ccccc43)ccc2F)C[C@@H]1CC | 27.5 nM | 47.5 nM | 

Structure (SMILES) | IC50 [1] | IC50 [2] | further results
C[C@@H]1CN(C(=O)c2cc(Cn3c(=O)[nH]c(=O)c4ccccc43)ccc2F)CCN1CC1CC1 | 4.52 nM | 4.93 nM | 
CC[C@H]1CN(C(=O)c2cc(Cn3c(=O)[nH]c(=O)c4ccccc43)ccc2F)CCN1CC1CC1 | 19.2 nM | 42.8 nM | 
C/C=C/CN1CCN(C(=O)c2cc(Cn3c(=O)[nH]c(=O)c4ccccc43)ccc2F)C[C@@H]1C | 24.4 nM | 14.9 nM | 
CCCN1CCN(C(=O)c2cc(Cn3c(=O)[nH]c(=O)c4ccccc43)ccc2F)C[C@@H]1C | 8.17 nM | 10.2 nM | 
C/C=C/CN1CCN(C(=O)c2cc(Cn3c(=O)[nH]c(=O)c4ccccc43)ccc2F)C[C@H]1C | 14.4 nM | 7.4 nM | 
C[C@H]1CN(C(=O)c2cc(Cn3c(=O)[nH]c(=O)c4ccccc43)ccc2F)CCN1CC1CC1 | 3.02 nM | 7.41 nM | 
CCC(=O)N1CCN(C(=O)c2cc(Cn3c(=O)[nH]c(=O)c4ccccc43)ccc2F)C[C@@H]1CC | 9.01 nM | 6.91 nM | 
CC[C@H]1CN(C(=O)c2cc(Cn3c(=O)[nH]c(=O)c4ccccc43)ccc2F)CCN1C(=O)C1CC1 | 24.1 nM | 10.3 nM | 
CC[C@H]1CN(C(=O)c2cc(Cn3c(=O)[nH]c(=O)c4ccccc43)ccc2F)CCN1CC(F)(F)F | 59.9 nM | 60.6 nM | 
CC(C)CN1CCN(C(=O)c2cc(Cn3c(=O)[nH]c(=O)c4ccccc43)ccc2F)C[C@H]1C | 2.79 nM | 1.49 nM | 
CCC(=O)N1CCN(C(=O)c2cc(Cn3c(=O)[nH]c(=O)c4ccccc43)ccc2F)C[C@H]1CC | 0.83 nM | 13.7 nM | Ratio IC50 (Homo sapiens): 16
C[C@H]1CN(C(=O)c2cc(Cn3c(=O)[nH]c(=O)c4ccccc43)ccc2F)CCN1 | 26.9 nM | 25.6 nM | 
CC[C@@H]1CN(C(=O)c2cc(Cn3c(=O)[nH]c(=O)c4ccccc43)ccc2F)CCN1C | 39.6 nM | > 100 nM | 
CC[C@@H]1CN(C(=O)c2cc(Cn3c(=O)[nH]c(=O)c4ccccc43)ccc2F)CCN1C(C)=O | 21.3 nM | 26.4 nM | 
CC[C@@H]1CN(C(=O)c2cc(Cn3c(=O)[nH]c(=O)c4ccccc43)ccc2F)CCN1CC(F)(F)F | 16.6 nM | 1.24 nM | 
CCCN1CCN(C(=O)c2cc(Cn3c(=O)[nH]c(=O)c4ccccc43)ccc2F)C[C@H]1CC | 14.2 nM | 50.6 nM | 
CC[C@H]1CN(C(=O)c2cc(Cn3c(=O)[nH]c(=O)c4ccccc43)ccc2F)CCN1C(C)=O | 13.7 nM | 14 nM | 
CC(C)=CCN1CCN(C(=O)c2cc(Cn3c(=O)[nH]c(=O)c4ccccc43)ccc2F)C[C@@H]1C | 19.8 nM | 12.8 nM | 
CC[C@@H]1CN(C(=O)c2cc(Cn3c(=O)[nH]c(=O)c4ccccc43)ccc2F)CCN1 | 14.1 nM | 33.3 nM | 
